Results taken from article PMC6017976, “Enzyme Kinetics and Molecular Docking Studies on Cytochrome 2B6, 2C19, 2E1, and 3A4 Activities by Sauchinone” (Molecules : A Journal of Synthetic Chemistry and Natural …, 2018).
Where “and” joins values, the source holds several entries; their conditions need not be identical. Identical values can stand only once.

Legend:
CYP2D6 [1] = molecular target: T1, CYP2D6 (Homo sapiens, UniProt P10635); assay: Time-dependent inhibition (TDI) IC50 shift assay on CYP2D6 in HLMs; assay type: in vitro ADME
T1 construct: pooled human liver microsomes from a mixed pool of 50 donors; tissue BD Gentest Co. 452156; host or cells: human liver microsomes, pool of 50 donors
T1 sequence (P10635 whole entry): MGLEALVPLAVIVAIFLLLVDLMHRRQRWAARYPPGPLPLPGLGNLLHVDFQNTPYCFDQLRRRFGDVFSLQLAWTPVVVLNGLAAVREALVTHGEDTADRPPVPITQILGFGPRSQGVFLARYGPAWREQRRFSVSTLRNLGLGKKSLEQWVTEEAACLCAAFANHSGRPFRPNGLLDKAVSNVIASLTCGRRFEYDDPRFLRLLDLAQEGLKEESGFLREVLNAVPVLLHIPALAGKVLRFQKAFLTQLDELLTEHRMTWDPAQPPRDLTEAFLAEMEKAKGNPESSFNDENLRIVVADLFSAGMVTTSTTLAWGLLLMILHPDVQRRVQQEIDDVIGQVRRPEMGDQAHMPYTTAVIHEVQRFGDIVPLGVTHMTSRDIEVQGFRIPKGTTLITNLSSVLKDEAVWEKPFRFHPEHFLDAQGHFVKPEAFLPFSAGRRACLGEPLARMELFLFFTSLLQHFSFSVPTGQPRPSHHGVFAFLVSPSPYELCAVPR

CYP2B6 [2] = molecular target: T2, CYP2B6 (Homo sapiens, UniProt P20813); assay: Reversible inhibition (RI) of CYP2B6 activity in HLMs (cocktail probe assay); assay type: in vitro ADME; details: bupropion hydroxylation, 50 μM bupropion, 30 min incubation
T2 construct: pooled human liver microsomes from a mixed pool of 50 donors; tissue BD Gentest Co. 452156; host or cells: human liver microsomes, pool of 50 donors
T2 sequence (P20813 1-491): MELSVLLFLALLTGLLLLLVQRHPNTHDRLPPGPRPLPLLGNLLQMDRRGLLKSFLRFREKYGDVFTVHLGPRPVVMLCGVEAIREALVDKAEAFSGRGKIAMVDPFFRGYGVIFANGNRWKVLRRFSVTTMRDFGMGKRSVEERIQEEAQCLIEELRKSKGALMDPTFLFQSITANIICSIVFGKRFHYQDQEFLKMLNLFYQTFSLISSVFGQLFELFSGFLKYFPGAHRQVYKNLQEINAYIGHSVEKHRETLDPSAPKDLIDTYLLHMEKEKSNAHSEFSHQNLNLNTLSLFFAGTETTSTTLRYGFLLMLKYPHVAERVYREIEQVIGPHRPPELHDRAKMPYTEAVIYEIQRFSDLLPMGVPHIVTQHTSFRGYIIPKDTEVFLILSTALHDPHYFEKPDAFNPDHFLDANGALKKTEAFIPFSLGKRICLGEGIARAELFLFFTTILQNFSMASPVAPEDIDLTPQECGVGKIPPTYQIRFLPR

CYP2E1 [3] = molecular target: T3, CYP2E1 (Homo sapiens, UniProt P05181); assay: Reversible inhibition (RI) of CYP2E1 activity in HLMs (cocktail probe assay); assay type: in vitro ADME; details: chlorzoxazone hydroxylation, 50 μM chlorzoxazone, 30 min incubation
T3 construct: pooled human liver microsomes from a mixed pool of 50 donors; tissue BD Gentest Co. 452156; host or cells: human liver microsomes, pool of 50 donors
T3 sequence (P05181 whole entry): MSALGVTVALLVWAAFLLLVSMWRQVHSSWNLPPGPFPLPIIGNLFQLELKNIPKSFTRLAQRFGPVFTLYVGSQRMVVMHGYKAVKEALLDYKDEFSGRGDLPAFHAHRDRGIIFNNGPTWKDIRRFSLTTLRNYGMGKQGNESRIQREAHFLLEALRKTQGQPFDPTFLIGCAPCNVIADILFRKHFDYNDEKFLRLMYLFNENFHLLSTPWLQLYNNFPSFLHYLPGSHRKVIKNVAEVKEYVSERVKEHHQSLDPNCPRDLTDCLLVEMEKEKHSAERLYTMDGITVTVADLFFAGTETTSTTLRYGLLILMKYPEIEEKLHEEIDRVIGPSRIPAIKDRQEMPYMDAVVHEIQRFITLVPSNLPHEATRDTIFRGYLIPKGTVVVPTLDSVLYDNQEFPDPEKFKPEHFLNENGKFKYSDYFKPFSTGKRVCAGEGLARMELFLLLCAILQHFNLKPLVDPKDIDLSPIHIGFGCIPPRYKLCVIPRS

CYP2B6 [4] = molecular target: T2, CYP2B6; assay: Time-dependent inhibition (TDI) IC50 shift assay on CYP2B6 in HLMs; assay type: in vitro ADME; details: for IC50: HLMs, 10 min incubation
CYP1A2 [5] = molecular target: T4, CYP1A2 (Homo sapiens, UniProt P05177); assay: Time-dependent inhibition (TDI) IC50 shift assay on CYP1A2 in HLMs; assay type: in vitro ADME; set-up: […]; tissue BD Gentest Co. 452156; details: 10 min incubation
T4 sequence (P05177 1-516): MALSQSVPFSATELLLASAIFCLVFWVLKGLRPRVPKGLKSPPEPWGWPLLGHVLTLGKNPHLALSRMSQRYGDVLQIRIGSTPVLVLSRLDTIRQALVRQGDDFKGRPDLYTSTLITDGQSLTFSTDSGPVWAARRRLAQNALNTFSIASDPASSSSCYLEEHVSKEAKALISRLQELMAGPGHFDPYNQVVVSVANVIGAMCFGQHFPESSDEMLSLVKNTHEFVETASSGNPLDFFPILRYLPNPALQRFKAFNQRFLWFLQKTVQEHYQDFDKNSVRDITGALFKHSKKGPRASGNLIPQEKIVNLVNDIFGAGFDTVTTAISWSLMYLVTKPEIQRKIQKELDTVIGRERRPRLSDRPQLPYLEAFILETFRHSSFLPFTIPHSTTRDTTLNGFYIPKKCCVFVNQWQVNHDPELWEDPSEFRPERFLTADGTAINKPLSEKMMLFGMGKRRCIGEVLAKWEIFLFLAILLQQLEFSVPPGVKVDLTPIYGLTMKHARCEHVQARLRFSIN

CYP2C19 [6] = molecular target: T5, CYP2C19 (Homo sapiens, UniProt P33261); assay: Reversible inhibition (RI) of CYP2C19 activity in HLMs (cocktail probe assay); assay type: in vitro ADME; details: S-mephenytoin hydroxylation, 100 μM S-mephenytoin, 30 min incubation
T5 construct: pooled human liver microsomes from a mixed pool of 50 donors; tissue BD Gentest Co. 452156; host or cells: human liver microsomes, pool of 50 donors
T5 sequence (P33261 whole entry): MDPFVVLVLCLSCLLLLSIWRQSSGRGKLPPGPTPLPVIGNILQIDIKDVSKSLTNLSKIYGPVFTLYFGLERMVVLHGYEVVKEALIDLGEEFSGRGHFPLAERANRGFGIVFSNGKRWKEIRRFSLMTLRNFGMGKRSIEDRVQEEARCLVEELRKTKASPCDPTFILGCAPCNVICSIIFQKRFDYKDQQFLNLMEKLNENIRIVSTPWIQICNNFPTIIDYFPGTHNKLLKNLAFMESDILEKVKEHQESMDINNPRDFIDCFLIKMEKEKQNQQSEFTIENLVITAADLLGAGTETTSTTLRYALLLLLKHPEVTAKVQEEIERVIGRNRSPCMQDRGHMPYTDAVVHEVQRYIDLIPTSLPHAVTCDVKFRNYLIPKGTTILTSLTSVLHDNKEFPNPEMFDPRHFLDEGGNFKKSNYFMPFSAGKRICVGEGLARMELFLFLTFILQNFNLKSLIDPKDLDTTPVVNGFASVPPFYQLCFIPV

CYP2A6 [7] = molecular target: T6, CYP2A6 (Homo sapiens, UniProt P11509); assay: Time-dependent inhibition (TDI) IC50 shift assay on CYP2A6 in HLMs; assay type: in vitro ADME; set-up: pooled human liver microsomes from a mixed pool of 50 donors; tissue BD Gentest Co. 452156; host or cells: human liver microsomes, pool of 50 donors; details: 10 min incubation
T6 sequence (P11509 1-494): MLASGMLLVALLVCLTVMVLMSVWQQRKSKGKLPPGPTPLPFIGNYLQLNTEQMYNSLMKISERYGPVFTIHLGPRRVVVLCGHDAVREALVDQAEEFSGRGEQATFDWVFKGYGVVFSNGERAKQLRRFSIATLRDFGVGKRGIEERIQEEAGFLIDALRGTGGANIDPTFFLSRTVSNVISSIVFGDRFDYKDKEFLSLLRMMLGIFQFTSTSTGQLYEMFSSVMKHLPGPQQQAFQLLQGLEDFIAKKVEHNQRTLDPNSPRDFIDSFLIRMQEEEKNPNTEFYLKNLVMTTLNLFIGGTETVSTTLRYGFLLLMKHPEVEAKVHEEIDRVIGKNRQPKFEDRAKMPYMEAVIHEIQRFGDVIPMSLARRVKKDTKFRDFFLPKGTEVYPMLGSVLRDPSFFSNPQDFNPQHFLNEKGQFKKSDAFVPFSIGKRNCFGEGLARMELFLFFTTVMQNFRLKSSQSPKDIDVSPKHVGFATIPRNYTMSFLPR

CYP2E1 [8] = molecular target: T3, CYP2E1; assay: Time-dependent inhibition (TDI) IC50 shift assay on CYP2E1 in HLMs; assay type: in vitro ADME; details: for IC50: HLMs, 10 min incubation
CYP2C9 [9] = molecular target: T7, CYP2C9 (Homo sapiens, UniProt P11712); assay: Reversible inhibition (RI) of CYP2C9 activity in HLMs (cocktail probe assay); assay type: in vitro ADME; details: 100 μM tolbutamide, 30 min incubation
T7 construct: pooled human liver microsomes from a mixed pool of 50 donors; tissue BD Gentest Co. 452156; host or cells: human liver microsomes, pool of 50 donors
T7 sequence (P11712 whole entry): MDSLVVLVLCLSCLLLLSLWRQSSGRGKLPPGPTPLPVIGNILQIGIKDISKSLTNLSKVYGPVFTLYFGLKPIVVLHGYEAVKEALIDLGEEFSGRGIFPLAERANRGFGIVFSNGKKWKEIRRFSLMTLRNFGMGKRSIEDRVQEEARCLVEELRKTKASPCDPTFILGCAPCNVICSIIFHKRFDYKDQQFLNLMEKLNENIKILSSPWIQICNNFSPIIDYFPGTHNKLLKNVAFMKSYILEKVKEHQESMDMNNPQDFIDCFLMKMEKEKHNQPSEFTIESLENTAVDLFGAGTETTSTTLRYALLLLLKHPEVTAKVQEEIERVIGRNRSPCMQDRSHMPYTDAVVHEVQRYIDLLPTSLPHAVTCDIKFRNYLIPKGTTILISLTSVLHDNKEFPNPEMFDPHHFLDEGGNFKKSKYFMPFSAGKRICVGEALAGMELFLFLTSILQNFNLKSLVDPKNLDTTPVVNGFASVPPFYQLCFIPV

CYP2C19 [10] = molecular target: T5, CYP2C19; assay: Enzyme kinetic assay (Dixon plot, Ki) for CYP2C19 in HLMs; assay type: in vitro ADME
Procedure: (§1) Based on IC50 values, the Kis of sauchinone for CYP2B6, 2C19, 2E1, and 3A4 were determined. Different concentrations (20, 50, and 200 μM) of sauchinone were used. Other procedures were similar to those mentioned above regarding the reversible inhibitory effects of sauchinone. The inhibitory characteristics of sauchinone were initially estimated by nonlinear least squares regression analysis. Its Ki values were determined by Dixon plots.

CYP2A6 [11] = molecular target: T6, CYP2A6; assay: Reversible inhibition (RI) of CYP2A6 activity in HLMs (cocktail probe assay)
CYP2C9 [12] = molecular target: T7, CYP2C9; assay: Time-dependent inhibition (TDI) IC50 shift assay on CYP2C9 in HLMs; assay type: in vitro ADME; details: 10 min incubation
CYP1A2 [13] = molecular target: T4, CYP1A2; assay: Reversible inhibition (RI) of CYP1A2 activity in HLMs (cocktail probe assay)
CYP2E1 [14] = molecular target: T3, CYP2E1; assay: Enzyme kinetic assay (Dixon plot, Ki) for CYP2E1 in HLMs; assay type: in vitro ADME
Procedure: as §1

CYP3A4 [15] = molecular target: T8, CYP3A4 (Homo sapiens, UniProt P08684); assay: Reversible inhibition (RI) of CYP3A4 activity in HLMs (cocktail probe assay); assay type: in vitro ADME; details: testosterone hydroxylation, 50 μM testosterone, 30 min incubation
T8 construct: pooled human liver microsomes from a mixed pool of 50 donors; tissue BD Gentest Co. 452156; host or cells: human liver microsomes, pool of 50 donors
T8 sequence (P08684 whole entry): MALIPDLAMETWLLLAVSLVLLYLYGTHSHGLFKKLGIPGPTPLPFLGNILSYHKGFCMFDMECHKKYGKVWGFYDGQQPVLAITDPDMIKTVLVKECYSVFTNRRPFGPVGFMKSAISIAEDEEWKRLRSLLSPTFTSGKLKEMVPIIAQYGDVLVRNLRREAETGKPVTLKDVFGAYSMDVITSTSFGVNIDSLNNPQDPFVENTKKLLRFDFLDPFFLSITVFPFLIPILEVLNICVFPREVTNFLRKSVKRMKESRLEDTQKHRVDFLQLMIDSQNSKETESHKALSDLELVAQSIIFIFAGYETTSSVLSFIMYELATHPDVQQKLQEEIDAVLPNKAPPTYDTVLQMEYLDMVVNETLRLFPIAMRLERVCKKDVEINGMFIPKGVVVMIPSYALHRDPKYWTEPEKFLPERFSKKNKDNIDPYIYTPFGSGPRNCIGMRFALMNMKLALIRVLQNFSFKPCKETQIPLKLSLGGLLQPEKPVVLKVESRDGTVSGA

CYP2D6 [16] = molecular target: T1, CYP2D6; assay: Reversible inhibition (RI) of CYP2D6 activity in HLMs (cocktail probe assay); assay type: in vitro ADME; details: 5 μM dextromethorphan, 30 min incubation
CYP3A4 [17] = molecular target: T8, CYP3A4; assay: Time-dependent inhibition (TDI) IC50 shift assay on CYP3A4 in HLMs; assay type: in vitro ADME; details: for IC50: HLMs, 10 min incubation
CYP2C19 [18] = molecular target: T5, CYP2C19; assay: Time-dependent inhibition (TDI) IC50 shift assay on CYP2C19 in HLMs; assay type: in vitro ADME; details: for IC50: HLMs, 10 min incubation
CYP3A4 [19] = molecular target: T8, CYP3A4; assay: Enzyme kinetic assay (Dixon plot, Ki) for CYP3A4 in HLMs; assay type: in vitro ADME
Procedure: as §1

CYP2B6 [20] = molecular target: T2, CYP2B6; assay: Enzyme kinetic assay (Dixon plot, Ki) for CYP2B6 in HLMs; assay type: in vitro ADME
Procedure: as §1

IC50 (CYP2D6 [1]; 0 min pre-incubation with NADPH, 10 min incubation, read-out: IC50 on CYP2D6, 0 min inactivation incubation (TDI)): > 300 µM
IC50 (CYP2D6 [1]; read-out: IC50 on CYP2D6, 30 min inactivation incubation (TDI), 30 min pre-incubation with NADPH, 10 min incubation): > 300 µM
IC50 (CYP2B6 [2]): 0.458 ± 0.0932 µM
IC50 (CYP2E1 [3]): 35.4 µM and 35.8 µM
IC50 (CYP2B6 [4]; 0 min pre-incubation with NADPH, read-out: IC50 on CYP2B6, 0 min inactivation incubation (TDI)): 36.4 ± 27 µM
IC50 (CYP2B6 [4]; IC50 on CYP2B6, 30 min inactivation incubation (TDI), 30 min pre-incubation with NADPH): 3.93 ± 5.72 µM
IC50 shift at 10 min (CYP2B6 [4]; human, human liver microsomes, pH 7.4, probe bupropion (substrate cocktail set)): 9.28
IC50 (CYP1A2 [5]; 0 min pre-incubation with NADPH, read-out: IC50 on CYP1A2, 0 min inactivation incubation (TDI)): > 300 µM
IC50 (CYP1A2 [5]; IC50 on CYP1A2, 30 min inactivation incubation (TDI), 30 min pre-incubation with NADPH): > 300 µM
IC50 (CYP2C19 [6]): 3.6 ± 2.54 µM
IC50 (CYP2A6 [7]; 0 min pre-incubation with NADPH, read-out: IC50 on CYP2A6, 0 min inactivation incubation (TDI)): > 300 µM
IC50 (CYP2A6 [7]; IC50 on CYP2A6, 30 min inactivation incubation (TDI), 30 min pre-incubation with NADPH): > 300 µM
IC50 (CYP2E1 [8]; 0 min pre-incubation with NADPH, read-out: IC50 on CYP2E1, 0 min inactivation incubation (TDI)): 105 ± 57 µM
IC50 (CYP2E1 [8]; IC50 on CYP2E1, 30 min inactivation incubation (TDI), 30 min pre-incubation with NADPH): 5.04 ± 1.91 µM
IC50 shift at 10 min (CYP2E1 [8]; human, human liver microsomes, pH 7.4, probe chlorzoxazone (substrate cocktail set)): 20.9
IC50 (CYP2C9 [9]): > 300 µM
Ki (CYP2C19 [10]; sauchinone 20, 50, 200 μM, read-out: Apparent inhibition constant (Ki) for CYP2C19): 16.8 µM
Type of reversible inhibition of CYP2C19 (Dixon plot model) (CYP2C19 [10]; visual inspection): noncompetitive
IC50 (CYP2A6 [11]): > 300 µM
IC50 (CYP2C9 [12]; 0 min pre-incubation with NADPH, read-out: IC50 on CYP2C9, 0 min inactivation incubation (TDI)): > 300 µM
IC50 (CYP2C9 [12]; IC50 on CYP2C9, 30 min inactivation incubation (TDI), 30 min pre-incubation with NADPH): > 300 µM
IC50 (CYP1A2 [13]): > 300 µM
Ki (CYP2E1 [14]; sauchinone 20, 50, 200 μM, read-out: Apparent inhibition constant (Ki) for CYP2E1): 41.7 µM
Type of reversible inhibition of CYP2E1 (Dixon plot model) (CYP2E1 [14]; visual inspection): noncompetitive
IC50 (CYP3A4 [15]): 0.207 ± 0.193 µM
IC50 (CYP2D6 [16]): > 300 µM
IC50 (CYP3A4 [17]; 0 min pre-incubation with NADPH, read-out: IC50 on CYP3A4, 0 min inactivation incubation (TDI)): 24.5 ± 51.3 µM
IC50 (CYP3A4 [17]; IC50 on CYP3A4, 30 min inactivation incubation (TDI), 30 min pre-incubation with NADPH): 1.14 ± 2.29 µM
IC50 shift at 10 min (CYP3A4 [17]; human, human liver microsomes, pH 7.4, probe testosterone (substrate cocktail set)): 21.4
IC50 (CYP2C19 [18]; 0 min pre-incubation with NADPH, read-out: IC50 on CYP2C19, 0 min inactivation incubation (TDI)): 28.5 ± 0.267 µM
IC50 (CYP2C19 [18]; IC50 on CYP2C19, 30 min inactivation incubation (TDI), 30 min pre-incubation with NADPH): 19.4 ± 2.92 µM
IC50 shift (CYP2C19 [18]; human, human liver microsomes, pH 7.4): 1.47
Ki (CYP3A4 [19]; sauchinone 20, 50, 200 μM, read-out: Apparent inhibition constant (Ki) for CYP3A4): 6.84 µM
Type of reversible inhibition of CYP3A4 (Dixon plot model) (CYP3A4 [19]; visual inspection): noncompetitive
Ki (CYP2B6 [20]; sauchinone 20, 50, 200 μM, read-out: Apparent inhibition constant (Ki) for CYP2B6): 14.3 µM
Type of reversible inhibition of CYP2B6 (Dixon plot model) (CYP2B6 [20]; visual inspection): noncompetitive
Structure (SMILES): C[C@@H]1[C@H]2c3cc4c(cc3O[C@@]35OCOC3=CC(=O)[C@H](C[C@H]1C)[C@@H]25)OCO4 [Sauchinone]
